We go through five molecules from PubChem BioAssay AID248 (DTP/NCI, 2004).

For the experiment, the system named is L1210 leukemia ip in BDF1 mice, survival T/C. Put plainly: NCI In Vivo Anticancer Drug Screen. Data for tumor model L1210 Leukemia (intraperitoneal) in B6D2F1 (BDF1) mice. The note with it: higher = longer survival. Put shortly:
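Transplantable tumor model; survival measured in treated vs vehicle control mice. Value = treated/control.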

Structures are written as SMILES. Several values for one entry are separate records, joined by “and”; a condition that tells them apart may be missing. Identical values can stand only once. Toxic doses and inconclusive results are not listed.

On to `COc1cc([C@@H]2c3cc4c(cc3[C@@H](OC3OC5CO[C@@H](c6cccs6)OC5C(O)C3O)[C@H]3COC(=O)[C@H]23)OCO4)cc(OC)c1O` (stereo not given in full), for which the T/C is, setting by setting: (endpoint: mean survival time, dose: 0.5 mg/kg/injection, schedule: Q03HX024 (ip), vehicle: other) 109 % of control; (endpoint: mean survival time, dose: 1.0 mg/kg/injection, schedule: Q01DX009 (ip), vehicle: other) 111 % of control; (endpoint: mean survival time, dose: 1.0 mg/kg/injection, schedule: Q03HX008 (ip), vehicle: other) 122 % of control; (endpoint: mean survival time, dose: 1.0 mg/kg/injection, schedule: Q03HX016 (ip), vehicle: other) 111 % of control; (endpoint: mean survival time, dose: 1.0 mg/kg/injection, schedule: Q03HX024 (ip), vehicle: other) 118 % of control; (endpoint: mean survival time, dose: 2.0 mg/kg/injection, schedule: Q01DX009 (oral), vehicle: other) 104 % of control. The T/C by setting is: (endpoint: mean survival time, dose: 2.0 mg/kg/injection, schedule: Q03HX008 (oral), vehicle: other) 90 % of control; (endpoint: mean survival time, dose: 2.0 mg/kg/injection, schedule: Q04DX003 (ip), vehicle: water) 194 % of control; (endpoint: mean survival time, dose: 2.0 mg/kg/injection, schedule: Q08DX002 (ip), vehicle: water) 156 % of control; (endpoint: mean survival time, dose: 4.0 mg/kg/injection, schedule: Q01DX001 (ip), vehicle: water) 157 % of control; (endpoint: mean survival time, dose: 4.0 mg/kg/injection, schedule: Q01DX009 (oral), vehicle: other) 101 % of control; (endpoint: mean survival time, dose: 4.0 mg/kg/injection, schedule: Q03HX008 (oral), vehicle: other) 98 % of control. Moreover, the T/C (endpoint: mean survival time, dose: 4.0 mg/kg/injection, schedule: Q04DX003 (ip), vehicle: other) was 110 % of control; the T/C (endpoint: mean survival time, dose: 4.0 mg/kg/injection, schedule: Q04DX003 (ip), vehicle: water) is 241 % of control; the T/C (endpoint: mean survival time, dose: 4.0 mg/kg/injection, schedule: Q08DX002 (ip), vehicle: water) was 172 % of control; the T/C (endpoint: mean survival time, dose: 8.0 mg/kg/injection, schedule: Q01DX001 (ip), vehicle: water) is 162 % of control; the T/C (endpoint: mean survival time, dose: 8.0 mg/kg/injection, schedule: Q01DX009 (oral), vehicle: other) is 105 % of control; the T/C (endpoint: mean survival time, dose: 8.0 mg/kg/injection, schedule: Q03HX008 (oral), vehicle: other) is 100 % of control. Further, the T/C is 186 % of control (endpoint: mean survival time, dose: 8.0 mg/kg/injection, schedule: Q03HX016 (ip), vehicle: other); 95 % of control (endpoint: mean survival time, dose: 8.0 mg/kg/injection, schedule: Q03HX016 (oral), vehicle: other); 98 % of control (endpoint: mean survival time, dose: 8.0 mg/kg/injection, schedule: Q03HX024 (oral), vehicle: other); 426 % of control (endpoint: mean survival time, dose: 8.0 mg/kg/injection, schedule: Q04DX003 (ip), vehicle: water); 97 % of control (endpoint: mean survival time, dose: 8.0 mg/kg/injection, schedule: Q04DX003 (oral), vehicle: other); 109 % of control (endpoint: mean survival time, dose: 8.0 mg/kg/injection, schedule: Q08DX002 (ip), vehicle: other). The T/C (endpoint: mean survival time, dose: 8.0 mg/kg/injection, schedule: Q08DX002 (ip), vehicle: water) was 300 % of control; the T/C (endpoint: mean survival time, dose: 16.0 mg/kg/injection, schedule: Q01DX001 (ip), vehicle: water) was 439 % of control; the T/C (endpoint: mean survival time, dose: 16.0 mg/kg/injection, schedule: Q01DX001 (oral), vehicle: other) is 111 % of control; the T/C (endpoint: mean survival time, dose: 16.0 mg/kg/injection, schedule: Q01DX009 (oral), vehicle: other) is 103 % of control; the T/C (endpoint: mean survival time, dose: 16.0 mg/kg/injection, schedule: Q03HX008 (oral), vehicle: other) was 95 % of control; the T/C (endpoint: mean survival time, dose: 16.0 mg/kg/injection, schedule: Q03HX016 (oral), vehicle: other) is 94 % of control and 95 % of control. For the same molecule, the T/C (endpoint: mean survival time, dose: 16.0 mg/kg/injection, schedule: Q03HX024 (oral), vehicle: other) is 93 % of control; the T/C (endpoint: mean survival time, dose: 16.0 mg/kg/injection, schedule: Q04DX003 (ip), vehicle: water) is 172 % of control; the T/C (endpoint: mean survival time, dose: 16.0 mg/kg/injection, schedule: Q04DX003 (oral), vehicle: other) is 106 % of control; the T/C (endpoint: mean survival time, dose: 16.0 mg/kg/injection, schedule: Q08DX002 (ip), vehicle: other) was 122 % of control; the T/C (endpoint: mean survival time, dose: 16.0 mg/kg/injection, schedule: Q08DX002 (ip), vehicle: water) was 423 % of control; the T/C (endpoint: mean survival time, dose: 16.0 mg/kg/injection, schedule: Q08DX002 (oral), vehicle: other) is 102 % of control. Moreover, the T/C by setting is: (endpoint: mean survival time, dose: 32.0 mg/kg/injection, schedule: Q01DX001 (ip), vehicle: water) 242 % of control; (endpoint: mean survival time, dose: 32.0 mg/kg/injection, schedule: Q01DX001 (oral), vehicle: other) 161 % of control; (endpoint: mean survival time, dose: 32.0 mg/kg/injection, schedule: Q03HX016 (oral), vehicle: other) 98 % of control; (endpoint: mean survival time, dose: 32.0 mg/kg/injection, schedule: Q03HX024 (oral), vehicle: other) 94 % of control; (endpoint: mean survival time, dose: 32.0 mg/kg/injection, schedule: Q04DX003 (ip), vehicle: water) 103 % of control; (endpoint: mean survival time, dose: 32.0 mg/kg/injection, schedule: Q04DX003 (oral), vehicle: other) 100 % of control. Moreover, the T/C reads like this: (endpoint: mean survival time, dose: 32.0 mg/kg/injection, schedule: Q08DX002 (ip), vehicle: water) 163 % of control; (endpoint: mean survival time, dose: 32.0 mg/kg/injection, schedule: Q08DX002 (oral), vehicle: other) 100 % of control; (endpoint: mean survival time, dose: 64.0 mg/kg/injection, schedule: Q01DX001 (ip), vehicle: other) 188 % of control; (endpoint: mean survival time, dose: 64.0 mg/kg/injection, schedule: Q01DX001 (oral), vehicle: other) 98 % of control; (endpoint: mean survival time, dose: 64.0 mg/kg/injection, schedule: Q03HX024 (oral), vehicle: other) 92 % of control; (endpoint: mean survival time, dose: 64.0 mg/kg/injection, schedule: Q04DX003 (oral), vehicle: other) 97 % of control. The T/C reads like this: (endpoint: mean survival time, dose: 64.0 mg/kg/injection, schedule: Q08DX002 (ip), vehicle: other) 190 % of control; (endpoint: mean survival time, dose: 64.0 mg/kg/injection, schedule: Q08DX002 (oral), vehicle: other) 96 % of control; (endpoint: mean survival time, dose: 128.0 mg/kg/injection, schedule: Q01DX001 (oral), vehicle: other) 101 % of control; (endpoint: mean survival time, dose: 128.0 mg/kg/injection, schedule: Q03HX024 (oral), vehicle: other) 94 % of control; (endpoint: mean survival time, dose: 128.0 mg/kg/injection, schedule: Q04DX003 (oral), vehicle: other) 96 % of control; (endpoint: mean survival time, dose: 128.0 mg/kg/injection, schedule: Q08DX002 (oral), vehicle: other) 98 % of control. For the same molecule, the T/C reads like this: (endpoint: mean survival time, dose: 600.0 mg/kg/injection, schedule: Q01DX009 (ip), vehicle: steriod suspending solution) 224 % of control; (endpoint: mean survival time, dose: 800.0 mg/kg/injection, schedule: Q01DX009 (ip), vehicle: steriod suspending solution) 246 % of control; (endpoint: mean survival time, dose: 1000.0 mg/kg/injection, schedule: Q01DX009 (ip), vehicle: steriod suspending solution) 169 % of control; (endpoint: median survival time, dose: 1.0 mg/kg/injection, schedule: Q01DX009 (ip), vehicle: saline) 194 % of control; (endpoint: median survival time, dose: 2.0 mg/kg/injection, schedule: Q01DX009 (ip), vehicle: saline) 116 % of control; (endpoint: median survival time, dose: 4.0 mg/kg/injection, schedule: Q01DX009 (ip), vehicle: saline) 88 % of control.

With `O=[N+]([O-])c1ccc(N=Nc2ccccc2)cc1`, the T/C is, setting by setting: (endpoint: mean survival time, dose: 100.0 mg/kg/injection, schedule: Q01DX009 (ip), vehicle: saline with Tween-80) 109 % of control; (endpoint: mean survival time, dose: 200.0 mg/kg/injection, schedule: Q01DX009 (ip), vehicle: saline with Tween-80) 104 % of control; (endpoint: mean survival time, dose: 400.0 mg/kg/injection, schedule: Q01DX009 (ip), vehicle: saline with Tween-80) 105 % of control.

Take `CCOC(=O)C(CCc1ccccn1)C(C)=O` (stereo not given): the T/C (endpoint: mean survival time, dose: 100.0 mg/kg/injection, schedule: Q01DX009 (ip), vehicle: saline) is 97 % of control; the T/C (endpoint: mean survival time, dose: 200.0 mg/kg/injection, schedule: Q01DX009 (ip), vehicle: saline) is 107 % of control; the T/C (endpoint: mean survival time, dose: 400.0 mg/kg/injection, schedule: Q01DX009 (ip), vehicle: saline) was 102 % of control.

Regarding `CCOC(=O)Nc1ccc([N+](=O)[O-])cc1`, the T/C by setting is: (endpoint: mean survival time, dose: 100.0 mg/kg/injection, schedule: Q01DX009 (ip), vehicle: Klucel (hydroxypropylcellulose) (HPC)) 87 % of control; (endpoint: mean survival time, dose: 100.0 mg/kg/injection, schedule: Q04DX003 (ip), vehicle: Klucel (hydroxypropylcellulose) (HPC)) 99 % of control; (endpoint: mean survival time, dose: 200.0 mg/kg/injection, schedule: Q01DX009 (ip), vehicle: Klucel (hydroxypropylcellulose) (HPC)) 99 % of control; (endpoint: mean survival time, dose: 200.0 mg/kg/injection, schedule: Q04DX003 (ip), vehicle: Klucel (hydroxypropylcellulose) (HPC)) 110 % of control; (endpoint: mean survival time, dose: 400.0 mg/kg/injection, schedule: Q01DX009 (ip), vehicle: Klucel (hydroxypropylcellulose) (HPC)) 97 % of control; (endpoint: mean survival time, dose: 400.0 mg/kg/injection, schedule: Q04DX003 (ip), vehicle: Klucel (hydroxypropylcellulose) (HPC)) 89 % of control.

Regarding `NNc1nnc(Cl)cc1N`, the T/C runs as follows: (endpoint: mean survival time, dose: 25.0 mg/kg/injection, schedule: Q04DX003 (ip), vehicle: saline with Tween-80) 102 % of control; (endpoint: mean survival time, dose: 50.0 mg/kg/injection, schedule: Q04DX003 (ip), vehicle: saline with Tween-80) 104 % of control; (endpoint: mean survival time, dose: 100.0 mg/kg/injection, schedule: Q04DX003 (ip), vehicle: saline with Tween-80) 113 % of control.
